#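 Grown in 96-well plates, cells were treated for 48 hours with each compound at five concentrations. Insufficient inhibition: endpoint recorded as highest concentration tested. GI50 is the concentration that inhibits growth by half.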 The source made the active and inactive calls. Cut-off read from the data, not from the text of the source: active = GI50 up to about 1.1 µM and inactive = higher.
# Key:
# Assay in all cases: NCI-60 cell line screen, 48 h
# PC-3 = test system: PC-3
# A498 = test system: A498
# HCT-15 = test system: HCT-15
# MOLT-4 = test system: MOLT-4
# NCI-H522 = test system: NCI-H522
# UACC-62 = test system: UACC-62
# SF-268 = test system: SF-268
# MCF7 = test system: MCF7
# UACC-257 = test system: UACC-257
# HT-29 = test system: HT-29
# HL-60 = test system: HL-60
# SK-MEL-28 = test system: SK-MEL-28
# UO-31 = test system: UO-31
# Malme-3M = test system: Malme-3M
# TK-10 = test system: TK-10
# CCRF-CEM = test system: CCRF-CEM
# SNB-75 = test system: SNB-75
# HCT-116 = test system: HCT-116
# CAKI-1 = test system: CAKI-1
# LOX IMVI = test system: LOX IMVI
# NCI-H23 = test system: NCI-H23
# T47D = test system: T47D
# OVCAR-4 = test system: OVCAR-4
# ACHN = test system: ACHN
# K562 = test system: K562
# SK-MEL-2 = test system: SK-MEL-2
# IGROV-1 = test system: IGROV-1
# MDA-N = test system: MDA-N
# OVCAR-3 = test system: OVCAR-3
# NCI-H460 = test system: NCI-H460
# 786-0 = test system: 786-0
# DU-145 = test system: DU-145
# HOP-62 = test system: HOP-62
# SR = test system: SR
# RPMI-8226 = test system: RPMI-8226
# OVCAR-8 = test system: OVCAR-8
# OVCAR-5 = test system: OVCAR-5
# BT-549 = test system: BT-549
# MDA-MB-435 = test system: MDA-MB-435
# HCC 2998 = test system: HCC 2998
# M14 = test system: M14
# SN12C = test system: SN12C
# U-251 = test system: U-251
# SNB-19 = test system: SNB-19
# NCI-H226 = test system: NCI-H226
# MDA-MB-231 = test system: MDA-MB-231
# SK-OV-3 = test system: SK-OV-3
# SF-295 = test system: SF-295
# SK-MEL-5 = test system: SK-MEL-5
# Hs-578T = test system: Hs-578T
# NCI/ADR-RES = test system: NCI/ADR-RES
# EKVX = test system: EKVX
# SW-620 = test system: SW-620
# A549 = test system: A549
# SF-539 = test system: SF-539
# COLO 205 = test system: COLO 205
# HOP-92 = test system: HOP-92
# RXF 393 = test system: RXF 393
# KM12 = test system: KM12
structure (smiles),measurement,setting,value
COc1ccc(OC)c2c1ccc1c(C)c3ccccc3c(C)c12,GI50,PC-3,> 100 µM (inactive)
same,GI50,A498,61 µM (inactive)
same,GI50,HCT-15,18 µM
same,GI50,MOLT-4,88.9 µM (inactive)
same,GI50,NCI-H522,75.9 µM (inactive)
same,GI50,UACC-62,> 100 µM (inactive)
same,GI50,SF-268,> 100 µM (inactive)
same,GI50,MCF7,20.9 µM (inactive)
same,GI50,UACC-257,> 100 µM (inactive)
same,GI50,HT-29,95.1 µM (inactive)
same,GI50,HL-60,57.1 µM (inactive)
same,GI50,SK-MEL-28,> 100 µM (inactive)
same,GI50,UO-31,82.2 µM (inactive)
same,GI50,Malme-3M,> 100 µM (inactive)
same,GI50,TK-10,> 100 µM (inactive)
same,GI50,CCRF-CEM,> 100 µM (inactive)
same,GI50,SNB-75,> 100 µM (inactive)
same,GI50,HCT-116,67.9 µM (inactive)
same,GI50,CAKI-1,> 100 µM (inactive)
same,GI50,LOX IMVI,60.1 µM (inactive)
same,GI50,NCI-H23,89.5 µM (inactive)
same,GI50,T47D,> 100 µM (inactive)
same,GI50,OVCAR-4,79.4 µM (inactive)
same,GI50,ACHN,> 100 µM (inactive)
same,GI50,K562,51.8 µM (inactive)
same,GI50,SK-MEL-2,> 100 µM (inactive)
same,GI50,IGROV-1,> 100 µM (inactive)
same,GI50,MDA-N,79.1 µM (inactive)
same,GI50,OVCAR-3,95.3 µM (inactive)
same,GI50,NCI-H460,71.9 µM (inactive)
same,GI50,786-0,> 100 µM (inactive)
same,GI50,DU-145,> 100 µM (inactive)
same,GI50,HOP-62,86.5 µM (inactive)
same,GI50,SR,36.6 µM (inactive)
same,GI50,RPMI-8226,> 100 µM (inactive)
same,GI50,OVCAR-8,> 100 µM (inactive)
same,GI50,OVCAR-5,> 100 µM (inactive)
same,GI50,BT-549,> 100 µM (inactive)
same,GI50,MDA-MB-435,> 100 µM (inactive)
same,GI50,HCC 2998,15.8 µM (inactive)
same,GI50,M14,82 µM (inactive)
same,GI50,SN12C,22.9 µM (inactive)
same,GI50,U-251,> 100 µM (inactive)
same,GI50,SNB-19,> 100 µM (inactive)
same,GI50,NCI-H226,> 100 µM (inactive)
same,GI50,MDA-MB-231,16 µM (inactive)
S=C(Nc1ccccc1)N(Cc1ccccc1)c1ccccc1,GI50,A498,14.6 µM (inactive)
same,GI50,HCT-15,40.4 µM
same,GI50,MOLT-4,25.5 µM (inactive)
same,GI50,SK-OV-3,> 100 µM (inactive)
same,GI50,NCI-H522,21 µM (inactive)
same,GI50,SF-295,34.3 µM (inactive)
same,GI50,UACC-62,21.6 µM (inactive)
same,GI50,SF-268,34.8 µM (inactive)
same,GI50,MCF7,33.7 µM (inactive)
same,GI50,UACC-257,22.4 µM (inactive)
same,GI50,HT-29,22.5 µM (inactive)
same,GI50,SK-MEL-5,13.8 µM (inactive)
same,GI50,HL-60,27.8 µM (inactive)
same,GI50,SK-MEL-28,17.4 µM (inactive)
same,GI50,UO-31,29.3 µM (inactive)
same,GI50,Hs-578T,20 µM (inactive)
same,GI50,Malme-3M,11.2 µM (inactive)
same,GI50,TK-10,29.7 µM (inactive)
same,GI50,CCRF-CEM,28.4 µM (inactive)
same,GI50,SNB-75,22.5 µM (inactive)
same,GI50,HCT-116,40.1 µM (inactive)
same,GI50,CAKI-1,24.2 µM (inactive)
same,GI50,LOX IMVI,33 µM (inactive)
same,GI50,NCI-H23,> 100 µM (inactive)
same,GI50,NCI/ADR-RES,> 100 µM (inactive)
same,GI50,T47D,56 µM (inactive)
same,GI50,OVCAR-4,23.7 µM (inactive)
same,GI50,ACHN,35 µM (inactive)
same,GI50,K562,29.7 µM (inactive)
same,GI50,SK-MEL-2,17.3 µM (inactive)
same,GI50,IGROV-1,44.4 µM (inactive)
same,GI50,OVCAR-3,30.2 µM (inactive)
same,GI50,NCI-H460,28.6 µM (inactive)
same,GI50,786-0,74.3 µM (inactive)
same,GI50,DU-145,6.75 µM (inactive)
same,GI50,HOP-62,49.3 µM (inactive)
same,GI50,EKVX,17.5 µM (inactive)
same,GI50,SR,20.5 µM (inactive)
same,GI50,SW-620,13.7 µM (inactive)
same,GI50,A549,29.8 µM (inactive)
same,GI50,SF-539,17.7 µM (inactive)
same,GI50,RPMI-8226,34.9 µM (inactive)
same,GI50,COLO 205,23.3 µM (inactive)
same,GI50,HOP-92,29.9 µM (inactive)
same,GI50,RXF 393,22.6 µM (inactive)
same,GI50,OVCAR-5,> 100 µM (inactive)
same,GI50,BT-549,0.34 µM (active)
same,GI50,MDA-MB-435,20.3 µM (inactive)
same,GI50,HCC 2998,> 100 µM (inactive)
same,GI50,M14,40.1 µM (inactive)
same,GI50,KM12,21.2 µM (inactive)
same,GI50,SN12C,44.1 µM (inactive)
same,GI50,U-251,42.6 µM (inactive)
same,GI50,SNB-19,80.2 µM (inactive)
same,GI50,NCI-H226,35.7 µM (inactive)
same,GI50,MDA-MB-231,45.6 µM (inactive)
CC(C)(C)OC(=O)NC1CCCC1C(=O)C1=CCCC1 (configuration not stated),GI50,PC-3,> 100 µM (inactive)
same,GI50,A498,> 100 µM (inactive)
same,GI50,HCT-15,59 µM
same,GI50,MOLT-4,> 100 µM (inactive)
same,GI50,SK-OV-3,> 100 µM (inactive)
same,GI50,UACC-62,70.1 µM (inactive)
same,GI50,SF-268,> 100 µM (inactive)
same,GI50,UACC-257,> 100 µM (inactive)
same,GI50,HT-29,> 100 µM (inactive)
same,GI50,SK-MEL-5,65 µM (inactive)
same,GI50,HL-60,> 100 µM (inactive)
same,GI50,SK-MEL-28,> 100 µM (inactive)
same,GI50,Hs-578T,44 µM (inactive)
same,GI50,CCRF-CEM,74.6 µM (inactive)
same,GI50,SNB-75,72.9 µM (inactive)
same,GI50,HCT-116,97.3 µM (inactive)
same,GI50,LOX IMVI,50.6 µM (inactive)
same,GI50,NCI-H23,85.7 µM (inactive)
same,GI50,NCI/ADR-RES,> 100 µM (inactive)
same,GI50,T47D,28.6 µM (inactive)
same,GI50,OVCAR-4,49.1 µM (inactive)
same,GI50,ACHN,> 100 µM (inactive)
same,GI50,K562,> 100 µM (inactive)
same,GI50,SK-MEL-2,> 100 µM (inactive)
same,GI50,IGROV-1,33.4 µM (inactive)
same,GI50,MDA-N,53 µM (inactive)
same,GI50,OVCAR-3,> 100 µM (inactive)
same,GI50,NCI-H460,> 100 µM (inactive)
same,GI50,786-0,> 100 µM (inactive)
same,GI50,DU-145,> 100 µM (inactive)
same,GI50,HOP-62,> 100 µM (inactive)
same,GI50,SR,90.8 µM (inactive)
same,GI50,SW-620,> 100 µM (inactive)
same,GI50,A549,> 100 µM (inactive)
same,GI50,RPMI-8226,> 100 µM (inactive)
same,GI50,OVCAR-8,> 100 µM (inactive)
same,GI50,COLO 205,> 100 µM (inactive)
same,GI50,HOP-92,> 100 µM (inactive)
same,GI50,RXF 393,> 100 µM (inactive)
same,GI50,OVCAR-5,> 100 µM (inactive)
same,GI50,BT-549,> 100 µM (inactive)
same,GI50,MDA-MB-435,90.6 µM (inactive)
same,GI50,HCC 2998,88.7 µM (inactive)
same,GI50,M14,> 100 µM (inactive)
same,GI50,KM12,92 µM (inactive)
same,GI50,SN12C,53.3 µM (inactive)
same,GI50,U-251,> 100 µM (inactive)
same,GI50,SNB-19,> 100 µM (inactive)
same,GI50,NCI-H226,> 100 µM (inactive)
same,GI50,MDA-MB-231,82.8 µM (inactive)

# Reference: ChEMBL document CHEMBL1201862, “PubChem BioAssay data set” (2004)
